Experimental data published in patent US20230233569A1 (Revolution Medicines, Inc., priority 2020, published 2023).

Experiments:
[1] = tested on: P70S6K (Thr389) phosphorylation (mTORC1) in MDA-MB-468 cells; test: Cell based AlphaLISA assay, mTOR kinase cellular assay: inhibition of p-P70S6K (T389) in MDA-MB-468 cells; details: Homo sapiens, read-out: pIC50 for Inhibition of mTORC1 and mTORC2 Substarte Phosphorylation p-P70S6K-(T389) (converted)
Protocol: Cell Based AlphaLISA Assays for Determining IC50 For Inhibition of P-Akt (S473), P-4E-BP1 (T37/46), and P-P70S6K (T389) in MDA-MB-468 Cells
mTOR Kinase Cellular Assay
To measure functional activity of mTORC1 and mTORC2 in cells the phosphorylation of 4EBP1 (Thr37/46) and P70S6K (Thr389), and AKT1/2/3 (Ser473) was monitored using AlphaLisa SureFire Ultra Kits (Perkin Elmer). MDA-MB-468 cells (ATCC® HTB-132) were cultured in 96-well tissue culture plates and treated with compounds in the disclosure at concentrations varying from 0.017-1,000 nM for two to four hours at 37° C. Incubations were terminated by removal of the assay buffer and addition of lysis buffer provided with the assay kit. Samples were processed according to the manufacturer's instructions. The Alpha signal from the respective phosphoproteins was measured in duplicate using a microplate reader (Envision, Perkin-Elmer or Spectramax M5, Molecular Devices). Inhibitor concentration response curves were analyzed using normalized IC50 regression curve fitting with control based normalization.

[2] = tested on: 4EBP1 (Thr37/46) phosphorylation (mTORC1) in MDA-MB-468 cells; test: Cell based AlphaLISA assay, mTOR kinase cellular assay: inhibition of p-4E-BP1 (T37/46) in MDA-MB-468 cells; details: Homo sapiens, read-out: pIC50 for Inhibition of mTORC1 and mTORC2 Substarte Phosphorylation p-4E-BP1-(T37/46) (converted)
Procedure, shortened: (§1)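 MDA-MB-468 cells treated with compound at 0.017-1,000 nM for two to four hours at 37° C, then lysed. Phospho-AKT1/2/3 S473, 4EBP1 T37/46 and P70S6K T389 quantified by AlphaLISA SureFire Ultra in duplicate; IC50 from normalized regression with control-based normalization.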

[3] = tested on: AKT1/2/3 (Ser473) phosphorylation (mTORC2) in MDA-MB-468 cells; test: Cell based AlphaLISA assay, mTOR kinase cellular assay: inhibition of p-Akt (S473) in MDA-MB-468 cells; details: Homo sapiens, read-out: pIC50 for Inhibition of mTORC1 and mTORC2 Substarte Phosphorylation p-AKT1/2/3-(S473) (converted)
Procedure, shortened: as §1

SMILES: CO[C@H]1C[C@@H]2CC[C@@H](C)[C@@](O)(O2)C(=O)C(=O)N2CCCC[C@H]2C(=O)O[C@H]([C@H](C)C[C@@H]2CC[C@@H](OC(=O)NCCOCCOCCOCCOCCC(=O)NCc3cnc(N4CCN(c5ncc(C(=O)NCCCCn6nc(-c7cnc8[nH]ccc8c7)c7c(N)ncnc76)cn5)CC4)nc3)[C@H](OC)C2)CC(=O)[C@H](C)/C=C(\C)[C@@H](O)[C@@H](OC)C(=O)[C@H](C)C[C@H](C)/C=C/C=C/C=C/1C [Example 47]
- IC50 [1]: ≤ 1 nM
- IC50 [2]: ≤ 3.16 nM
- IC50 [3]: 3.16 to 31.6 nM

SMILES: CO[C@H]1C[C@@H]2CC[C@@H](C)[C@@](O)(O2)C(=O)C(=O)N2CCCC[C@H]2C(=O)O[C@H]([C@H](C)C[C@@H]2CC[C@@H](OC(=O)NCCOCCOCCOCCOCCOCCOCCC(=O)N3CCC(N4CCC(C(=O)N5CCc6cc(Cn7nc(-c8ccc9oc(N)nc9c8)c8c(N)ncnc87)ccc6C5)CC4)CC3)[C@H](OC)C2)CC(=O)[C@H](C)/C=C(\C)[C@@H](O)[C@@H](OC)C(=O)[C@H](C)C[C@H](C)/C=C/C=C/C=C/1C [Example 48]
- IC50 [1]: ≤ 1 nM
- IC50 [2]: ≤ 3.16 nM
- IC50 [3]: 3.16 to 31.6 nM

SMILES: CO[C@H]1C[C@@H]2CC[C@@H](C)[C@@](O)(O2)C(=O)C(=O)N2CCCC[C@H]2C(=O)O[C@H]([C@H](C)C[C@@H]2CC[C@@H](OC(=O)NCCOCCOCCOCCOCCC(=O)NCc3cnc(N4CCN(c5ncc(C(=O)N6CCc7cc(Cn8nc(-c9ccc%10oc(N)nc%10c9)c9c(N)ncnc98)ccc7C6)cn5)CC4)nc3)[C@H](OC)C2)C[C@@H](O)[C@H](C)/C=C(\C)[C@@H](O)[C@@H](OC)C(=O)[C@H](C)C[C@H](C)/C=C/C=C/C=C/1C [Example 49]
- IC50 [1]: ≤ 1 nM
- IC50 [2]: ≤ 3.16 nM
- IC50 [3]: 3.16 to 31.6 nM

SMILES: CO[C@H]1C[C@@H]2CC[C@@H](C)[C@@](O)(O2)C(=O)C(=O)N2CCCC[C@H]2C(=O)O[C@H]([C@H](C)C[C@@H]2CC[C@@H](OC(=O)NCCOCCOCCOCCOCCC(=O)NCc3cnc(N4CCN(c5ncc(C(=O)N6CCc7cc(Cn8nc(-c9ccc%10oc(N)nc%10c9)c9c(N)ncnc98)ccc7C6)cn5)CC4)nc3)[C@H](OC)C2)C[C@@H](OC)[C@H](C)/C=C(\C)[C@@H](O)[C@@H](OC)C(=O)[C@H](C)C[C@H](C)/C=C/C=C/C=C/1C [Example 50]
- IC50 [1]: ≤ 1 nM
- IC50 [2]: ≤ 3.16 nM
- IC50 [3]: 31.6 to 1000 nM

SMILES: CO[C@H]1C[C@@H]2CC[C@@H](C)[C@@](O)(O2)C(=O)C(=O)N2CCCC[C@H]2C(=O)O[C@H]([C@H](C)C[C@@H]2CC[C@@H](OC(=O)NCc3cnc(N4CCN(C(=O)CCOCCN5CCN(c6ncc(C(=O)N7CCc8cc(Cn9nc(-c%10ccc%11oc(N)nc%11c%10)c%10c(N)ncnc%109)ccc8C7)cn6)CC5)CC4)nc3)[C@H](OC)C2)CC(=O)[C@H](C)/C=C(\C)[C@@H](O)[C@@H](OC)C(=O)[C@H](C)C[C@H](C)/C=C/C=C/C=C/1C [Example 51]
- IC50 [1]: ≤ 1 nM
- IC50 [2]: ≤ 3.16 nM
- IC50 [3]: ≤ 3.16 nM

SMILES: CO[C@H]1C[C@@H]2CC[C@@H](C)[C@@](O)(O2)C(=O)C(=O)N2CCCC[C@H]2C(=O)O[C@H]([C@H](C)C[C@@H]2CC[C@@H](OC(=O)N3CCc4nc(N5CCN(c6ncc(C(=O)N7CCN(c8ncc(C(=O)N9CCc%10cc(Cn%11nc(-c%12ccc%13oc(N)nc%13c%12)c%12c(N)ncnc%12%11)ccc%10C9)cn8)CC7)cn6)CC5)ncc4C3)[C@H](OC)C2)CC(=O)[C@H](C)/C=C(\C)[C@@H](O)[C@@H](OC)C(=O)[C@H](C)C[C@H](C)/C=C/C=C/C=C/1C [Example 62]
- IC50 [1]: 1 to 10 nM
- IC50 [2]: > 1000 nM
- IC50 [3]: > 1000 nM

SMILES: CO[C@H]1C[C@@H]2CC[C@@H](C)[C@@](O)(O2)C(=O)C(=O)N2CCCC[C@H]2C(=O)O[C@H]([C@H](C)C[C@@H]2CC[C@@H](OC(=O)NCc3cnc(N4CCN(C(=O)CCOCCN5CCN(c6ncc(C(=O)NCCOCCC(=O)NCCCCn7nc(-c8ccc9oc(N)nc9c8)c8c(N)ncnc87)cn6)CC5)CC4)nc3)[C@H](OC)C2)CC(=O)[C@H](C)/C=C(\C)[C@@H](O)[C@@H](OC)C(=O)[C@H](C)C[C@H](C)/C=C/C=C/C=C/1C [Example 63]
- IC50 [1]: ≤ 1 nM
- IC50 [2]: ≤ 3.16 nM
- IC50 [3]: ≤ 3.16 nM

SMILES: CO[C@H]1C[C@@H]2CC[C@@H](C)[C@@](O)(O2)C(=O)C(=O)N2CCCC[C@H]2C(=O)O[C@H]([C@H](C)C[C@@H]2CC[C@@H](OC(=O)NCc3cnc(N4CCN(C(=O)CCOCCN5CCN(c6ncc(C(=O)NCCOCCC(=O)N7CCc8cc(Cn9nc(-c%10ccc%11oc(N)nc%11c%10)c%10c(N)ncnc%109)ccc8C7)cn6)CC5)CC4)nc3)[C@H](OC)C2)CC(=O)[C@H](C)/C=C(\C)[C@@H](O)[C@@H](OC)C(=O)[C@H](C)C[C@H](C)/C=C/C=C/C=C/1C [Example 64]
- IC50 [1]: ≤ 1 nM
- IC50 [2]: ≤ 3.16 nM
- IC50 [3]: 3.16 to 31.6 nM

SMILES: CO[C@H]1C[C@@H]2CC[C@@H](C)[C@@](O)(O2)C(=O)C(=O)N2CCCC[C@H]2C(=O)O[C@H]([C@H](C)C[C@@H]2CC[C@@H](OC(=O)NCc3cnc(N4CCN(C(=O)CCOCCN5CCN(c6ncc(C(=O)NCCOCCC(=O)N7CCc8cc(Cn9nc(-c%10ccc%11oc(N)nc%11c%10)c%10c(N)ncnc%109)ccc8C7)cn6)CC5)CC4)nc3)[C@H](OC)C2)C[C@@H](OC)[C@H](C)/C=C(\C)[C@@H](O)[C@@H](OC)C(=O)[C@H](C)C[C@H](C)/C=C/C=C/C=C/1C [Example 65]
- IC50 [1]: ≤ 1 nM
- IC50 [2]: ≤ 3.16 nM
- IC50 [3]: 31.6 to 1000 nM

SMILES: CO[C@H]1C[C@@H]2CC[C@@H](C)[C@@](O)(O2)C(=O)C(=O)N2CCCC[C@H]2C(=O)O[C@H]([C@H](C)C[C@@H]2CC[C@@H](OC(=O)NCc3cnc(N4CCN(C(=O)CCOCCN5CCN(c6ncc(C(=O)NCCOCCC(=O)NCCCCn7nc(-c8cnc9[nH]ccc9c8)c8c(N)ncnc87)cn6)CC5)CC4)nc3)[C@H](OC)C2)CC(=O)[C@H](C)/C=C(\C)[C@@H](O)[C@@H](OC)C(=O)[C@H](C)C[C@H](C)/C=C/C=C/C=C/1C [Example 66]
- IC50 [1]: 10 to 1000 nM
- IC50 [2]: 31.6 to 1000 nM
- IC50 [3]: 3.16 to 31.6 nM

SMILES: CO[C@H]1C[C@@H]2CC[C@@H](C)[C@@](O)(O2)C(=O)C(=O)N2CCCC[C@H]2C(=O)O[C@H]([C@H](C)C[C@@H]2CC[C@@H](OC(=O)NCCOCCC(=O)NCc3cnc(N4CCN(C(=O)CCOCCN5CCN(c6ncc(C(=O)N7CCc8cc(Cn9nc(-c%10ccc%11oc(N)nc%11c%10)c%10c(N)ncnc%109)ccc8C7)cn6)CC5)CC4)nc3)[C@H](OC)C2)CC(=O)[C@H](C)/C=C(\C)[C@@H](O)[C@@H](OC)C(=O)[C@H](C)C[C@H](C)/C=C/C=C/C=C/1C [Example 67]
- IC50 [1]: 10 to 1000 nM
- IC50 [2]: 31.6 to 1000 nM
- IC50 [3]: 31.6 to 1000 nM

SMILES: CO[C@H]1C[C@@H]2CC[C@@H](C)[C@@](O)(O2)C(=O)C(=O)N2CCCC[C@H]2C(=O)O[C@H]([C@H](C)C[C@@H]2CC[C@@H](OC(=O)NCCOCCC(=O)NCc3cnc(N4CCN(C(=O)CCOCCN5CCN(c6ncc(C(=O)NCCCCn7nc(-c8cnc9[nH]ccc9c8)c8c(N)ncnc87)cn6)CC5)CC4)nc3)[C@H](OC)C2)CC(=O)[C@H](C)/C=C(\C)[C@@H](O)[C@@H](OC)C(=O)[C@H](C)C[C@H](C)/C=C/C=C/C=C/1C [Example 68]
- IC50 [1]: ≤ 1 nM
- IC50 [2]: ≤ 3.16 nM
- IC50 [3]: > 1000 nM

SMILES: CO[C@H]1C[C@@H]2CC[C@@H](C)[C@@](O)(O2)C(=O)C(=O)N2CCCC[C@H]2C(=O)O[C@H]([C@H](C)C[C@@H]2CC[C@@H](OC(=O)NCCOCCC(=O)NCc3cnc(N4CCN(C(=O)CCOCCN5CCN(c6ncc(C(=O)N7CCc8cc(Cn9nc(-c%10ccc%11oc(N)nc%11c%10)c%10c(N)ncnc%109)ccc8C7)cn6)CC5)CC4)nc3)[C@H](OC)C2)C[C@@H](O)[C@H](C)/C=C(\C)[C@@H](O)[C@@H](OC)C(=O)[C@H](C)C[C@H](C)/C=C/C=C/C=C/1C [Example 69]
- IC50 [1]: ≤ 1 nM
- IC50 [2]: ≤ 3.16 nM
- IC50 [3]: 3.16 to 31.6 nM

SMILES: CO[C@H]1C[C@@H]2CC[C@@H](C)[C@@](O)(O2)C(=O)C(=O)N2CCCC[C@H]2C(=O)O[C@H]([C@H](C)C[C@@H]2CC[C@@H](OC(=O)NCCOCCC(=O)NCc3cnc(N4CCN(C(=O)CCOCCN5CCN(c6ncc(C(=O)N7CCc8cc(Cn9nc(-c%10ccc%11oc(N)nc%11c%10)c%10c(N)ncnc%109)ccc8C7)cn6)CC5)CC4)nc3)[C@H](OC)C2)C[C@@H](OC)[C@H](C)/C=C(\C)[C@@H](O)[C@@H](OC)C(=O)[C@H](C)C[C@H](C)/C=C/C=C/C=C/1C [Example 70]
- IC50 [1]: ≤ 1 nM
- IC50 [2]: ≤ 3.16 nM
- IC50 [3]: 31.6 to 1000 nM

SMILES: CO[C@H]1C[C@@H]2CC[C@@H](C)[C@@](O)(O2)C(=O)C(=O)N2CCCC[C@H]2C(=O)O[C@H]([C@H](C)C[C@@H]2CC[C@@H](OC(=O)NCCOCCOCCOCCOCCOCCOCCOCCOCC(=O)N3CCc4cc(Cn5nc(-c6ccc7oc(N)nc7c6)c6c(N)ncnc65)ccc4C3)[C@H](OC)C2)CC(=O)[C@H](C)/C=C(\C)[C@@H](O)[C@@H](OC)C(=O)[C@H](C)C[C@H](C)/C=C/C=C/C=C/1C [Example 71]
- IC50 [1]: ≤ 1 nM
- IC50 [2]: ≤ 3.16 nM
- IC50 [3]: 3.16 to 31.6 nM
